Data as given in patent US9497963B2, “Methods and compositions for control of gypsy moth, Lymantria dispar” (Simon Fraser University, priority 2008, dated 2016).
Where two headings read alike, the source gives them in different places.

Tests used:
Parameters in all cases: species or system Lymantria dispar
[1] = tested on: male gypsy moth antenna response to mixed pheromone/modulator plume; assay: EAG peak broadening (PB) (Example 11); conditions: mixed plume, 100 μg compound and 100 ng pheromone (puff v vs puff ii)
Procedure: A mixed pheromone/modulator plume could elicit a prolonged response (FIG. 1A, puff v; FIG. 2), and this was termed peak broadening (PB). PB was calculated from the EAG traces as follows: PB=100×(Δtv−Δtii)/Δtii
Where Δt was the width of the EAG peak (in s) from the start of the depolarization to the return to background potential.

[2] = tested on: male gypsy moth antenna response to pheromone (+)-1; assay: EAG short-term (STI) and long-term (LTI) inhibition of pheromone signaling (Example 5); conditions: Lymantria dispar; for inhibition at 100 µg, 0.1 mg: read-out: Activity (%): long-term inhibition (LTI); for inhibition at 0.001 mg: mixed plume (+)-1 100 ng + compound 1 μg; for inhibition at 0.001 mg / inhibition at 0.01 mg / inhibition at 0.1 mg: negative = enhancement, read-out: Activity (%): short-term inhibition (STI); for inhibition at 0.01 mg: mixed plume (+)-1 100 ng + compound 10 μg; for inhibition at 0.1 mg: mixed plume (+)-1 100 ng + compound 100 μg (puff v)
Procedure: The puffs are numbered i-vi and were: i=air, ii=pure pheromone (+)-disparlure, (+)-1, (100 ng), iii-v=disparlure mixed with the test compound, the latter at three different doses, vi=pure (+)-1. Depolarizations from the resting potential are labeled d; hyperpolarizations seen during the recovery phase after a puff are labeled r. Subscripts refer to the puff number. FIG. 5A. Typical trace for compound 3c{2,3}. FIG. 5B. Typical trace for compound 3a{4,4}.
For other compounds, EAG traces were recorded as follows: a fully dislodged antenna from a male gypsy moth was mounted on the end of a reference electrode (a glass capillary with a silver wire, filled with buffered saline: 5 mM NaH2PO4, 10 mM Na2SO4, 4.5 mM KHCO3, 18 mM MgCl2, 4 mM CaCl2, 6 mM KCl, the pH is adjusted to 6.8 using 5 mM Na2HPO4). The tip of the antenna was severed with microscissors and placed in the recording electrode, which was mounted on a micromanipulator. A constant stream of air, that had been purified (charcoal filter), was blown over the antenna at a rate of 300 mL/min. Test samples were delivered through a stimulus delivery tube with a side opening 2 cm from the distal opening. The proximal end of the delivery tube was connected to a controlled stimulus delivery apparatus (Stimulus controller CS-05 Syntech Research and Equipment, NL 1200BM, Hilversum, The Netherlands). The distal end of the delivery tube pointed at the antenna (1 cm from the antenna). The side opening was connected to a cartridge fashioned from a Pasteur pipette which contained a small filter paper (Whatman No. 1) with the stimulus. These pipette cartridges could be prepared a few days in advance and stored at −80° C. wrapped in Al foil and in sealable plastic bags. Sample cartridges were mounted once they had reached room temperature. The stimulus delivery apparatus delivered a second stream of air (a puff) through the Pasteur pipette at a velocity of 600 mL/min, at a specified point in time, for 0.3 s. Receptor potentials of the antennae in response to test stimuli were recorded with a Syntech IDAC probe, amplifier and interfaced board, and were analyzed with EAG Syntech Software Version 2.4 (1996). See FIG. 4 for a representative EAG trace. The EAG traces were evaluated as follows (see FIG. 5).
The net depolarizations, d(net) (in mV), of puffs ii-vi,d(sample), (corrected for the depolarization with clean air, d(air)) d(net)=d(sample)−d(air) (Eq. 1)
The percentage short-term inhibition for each compound (STI(compound)) of puffs iii-v, relative to the first pure pheromone puff (ii) STI(compound)=100×(d(net)(ii)−d(net)(compound))/d(net)(ii) (Eq. 2)
c) the percentage long-term inhibition for each compound (LTI(compound)) of the pure pheromone puff that followed the last mixed puff (vi) relative to the first pure pheromone puff (ii) LTI(compound)=100×(d(net)(ii)−d(net)(vi))/d(net)(ii) (Eq. 3)
The compounds we tested gave weak or no olfactory responses by themselves in electroantennogram (EAG) experiments. The EAG trace reflects the change in the potential across the antenna when an air puff with an odorant is passed over the antenna. To understand the agonistic or antagonistic effect of the compounds on pheromone responses by male moth antennae, four types of EAG experiment were conducted. First, the response of the antenna elicited by a stimulus of pure (+)-1 was compared to the responses elicited by blends of (+)-1 with the test compound (FIG. 5). […] This effect was termed short-term inhibition (STI). […] Second, the time decay and dose responses for LTI activities were studied. Third, the strongest inhibitors were tested for their ability to cause LTI by themselves.
This experiment explored the agonistic or antagonistic activity of the synthetic aromatic compounds (Scheme 1 and eugenol and alkyl eugenols) with the gypsy moth pheromone (+)-1. […]

male gypsy moth antenna = assay: Coupled gas chromatographic-electroantennographic detection (GC-EAD); conditions: EAD peak size and shape (sharp/broad)
In short: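 GC column effluent split between flame ionization detector and an excised male moth antenna held between saline-filled glass capillary electrodes, tip removed, in a warm air stream. Antennal potentials assigned to compounds by matching retention times with FID peaks.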

L. dispar PBP 2 = assay: Pheromone-binding protein (PBP) ligand binding assay, PBP2
Procedure: (§1) A. The protein and ligand are incubated in buffer overnight. B. For half of the incubation mixture, the free ligand (L) is separated from the protein-bound ligand (P.L) by size-exclusion chromatography on P2 Gel (BioRad, exclusion limit 2000 Da). The protein elutes from the small column bed, with its ligand bound (see Examples and […] et al. 2000; Staddon and Everton 1980), while the free ligand is retained on the column ([…] et al. 2000). C. […] The extract from the filtrate (B) contains the protein-bound ligand and the extract from the incubation mixture (A) contains all the ligand (bound and free) present in the aqueous phase. The extracts are analyzed by GC-MS, to obtain values for total ligand in solution (L+P.L) and for protein-bound ligand (P.L). These can then be used to calculate % bound (Table 3). These assays were performed as described in FIG. 3 and as follows: L. dispar PBP 1 or PBP 2 was incubated with the test compound or mini-library. The PBP and the ligand(s) (L) were left to equilibrate (eq 2) overnight. The non-bound ligand was then separated from the protein-bound material (PBP.L) by size-exclusion chromatography. By determining the total ligand in solution at equilibrium (eq. 3) and the protein-bound ligand, it is possible to estimate the percentage of ligand bound to the protein at equilibrium (eq. 4). […] This binding assay has been validated extensively in previous studies ([…] et al. 2000). The components of each mini-library separated cleanly by GC, so it was possible to monitor binding of individual components. PBP+L⇄PBP·L (eq. 2) [L]tot=[L]+[PBP·L] (eq. 3) % bound=100×[PBP·L]/[L]tot (eq. 4) Results: The members of each mini-library separated cleanly by GC, therefore it was possible to monitor binding of individual members to PBP1 or PBP2, the two known PBPs in the gypsy moth, by extraction from the aqueous incubation mixture, followed by GC analysis of the extract (FIG. 3).

L. dispar PBP 1 = assay: Pheromone-binding protein (PBP) ligand binding assay, PBP1
Procedure: as §1

[3] = tested on: male gypsy moth antenna response to odorants other than (+)-1; assay: Long-term inhibition of responses to other pheromone and host plant odorants, EAG (Example 8, first objective)
Procedure: To determine whether the long-term inhibitory effects of 3c{2,3} and DEET are specific to (+)-1 or also apply to other odorants, compound 3c{2,3} and DEET were tested further with other odorants: (−)-1, racemic 1, dispar alkene, methyl eugenol and 1-hexanol.
These included (−)-1, racemic 1, dispar alkene (the alkene corresponding to the carbon framework of 1), methyl eugenol (a characteristic oak wood odorant) and 1-hexanol (a green leaf volatile, shown previously to be detected by gypsy moth antennae). For the pure odorant puffs, (−)-1 and racemic 1 were administered at 100 ng/cartridge, the alkene, methyl eugenol was administered at 1 μg/cartridge and 1-hexanol was administered at 100 μg/cartridge. The antagonists were both administered at 100 μg/cartridge, mixed with the appropriate dose of the odorant. The puff order was: i) air, ii) pure odorant, iii) odorant+antagonist, iv) pure odorant. All puffs were corrected for the air response as in Eq. 1. STI values were obtained from the depolarization […]. LTI values were obtained by comparing the depolarization of puff iv relative to that of puff ii.

[4] = tested on: male gypsy moth antennae response to pheromone (+)-1 with plant odors; assay: Effect on mixed pheromone/plant odorant stimulus, EAG (Example 8, second objective); conditions: (+)-1 100 ng + 1-hexanol 100 μg, no antagonist
Procedure: A second objective for this experiment was to determine whether the oak volatiles, methyl eugenol and 1-hexanol, can enhance the antennal response to (+)-1 and whether the mixed pheromone/plant odorant stimulus can be inhibited by compound 3c{2,3} or DEET. The puff order was: i) air, ii) pure (+)-1 (100 ng), iii) (+)-1 (100 ng) and plant odorant (1 μg for methyl eugenol and 100 μg for 1-hexanol), iv) (+)-1 and plant odorant as in iii+antagonist (100 μg), v) same as in iii. Depolarizations were corrected for the air response as in Eq. 1 and the short-term effects were calculated for puff iii relative to puff ii, and for puff iv relative to puff ii. Long-term effects were calculated for puff v relative to puff iii (for LTI of the mixed pheromone/plant odorant plume) and for puff v relative to puff ii (to determine whether long-term effects of the plant odorant and of the antagonist cancel).

[5] = pure (+)-1 100 ng plume following mixed plume with 100 μg compound, mean ± S.E.
[6] = member tested within library 3c{1, 1-5}
[7] = member tested within library 3c{2, 1-5}
[8] = member tested within library 3c{5, 1-5}
[9] = member tested within library 3c{4, 1-5}
[10] = tested as single compound, means ± S.E., 4 replicates

Compound	activity (% peak broadening) [1] [%]	GC-EAD activity (male gypsy moth antenna)	inhibition at 0.001 mg ([2]; mean ± S.E.) [%]	inhibition at 0.01 mg ([2]; mean ± S.E.) [%]	inhibition at 0.1 mg ([2]; mean ± S.E.) [%]	inhibition at 100 µg, 0.1 mg [2, 5] [%]	other results
COc1ccccc1OC [3a{1,1}, 1,2-Dimethoxy benzene]	99 ± 25	++ sharp					inhibition at 100 µg, 0.1 mg [2]: 18 ± 13%
CCOc1ccccc1OCC [3a{2,2}, 1,2-Diethoxy benzene]	106 ± 32	+ sharp	-10 ± 29	-23 ± 42	-22 ± 69	15 ± 11	
CCCOc1ccccc1OCCC [3a{3,3}, 1,2-Dipropoxy benzene]	80 ± 31	++ sharp	37 ± 14	4 ± 21	-11 ± 36	36 ± 9	
CCCCOc1ccccc1OCCCC [3a{4,4}, 1,2-Dibutoxy benzene]	86 ± 32	+ broad	-48 ± 28	14 ± 31	27 ± 29	49 ± 12	
C=CCOc1cccc(OCC)c1 [3b{2,6}, 1-allyloxy-3-ethoxybenzene]	77 ± 33	None	-115 ± 43	-17 ± 54	-50 ± 74	25 ± 8	
CCOc1ccc(OC)cc1 [3c{1,2}, 1-ethoxy-4-methoxy benzene]		++ sharp					PBP2 (% bound) (L. dispar PBP 2; [6]): 12 ± 1.5%; PBP2 (% bound) (L. dispar PBP 2; [7]): 40 ± 0.1%; PBP1 (% bound) (L. dispar PBP 1; [6]): 15 ± 0.4%; PBP1 (% bound) (L. dispar PBP 1; [7]): 30 ± 0.2%
COc1ccc(OCCC(C)C)cc1 [3c{1,5}, 1-methoxy-4-(3-methyl-butyloxy) benzene]		None					PBP2 (% bound) (L. dispar PBP 2; [6]): 2 ± 2.5%; PBP2 (% bound) (L. dispar PBP 2; [8]): 5 ± 0.1%; PBP1 (% bound) (L. dispar PBP 1; [6]): 1 ± 0.7%; PBP1 (% bound) (L. dispar PBP 1; [8]): 7 ± 0.1%
CCCCOc1ccc(OCC)cc1 [3c{2,4}, 1-butoxy-4-ethoxy benzene]		None					PBP1 (% bound) (L. dispar PBP 1; [9]): 10 ± 0.4%
CCOc1ccc(OCCC(C)C)cc1 [3c{2,5}, 1-ethoxy-4-(3-methyl-butyloxy) benzene]		None					PBP2 (% bound) (L. dispar PBP 2; [7]): 14 ± 0.2%; PBP2 (% bound) (L. dispar PBP 2; [8]): 3 ± 0.03%; PBP1 (% bound) (L. dispar PBP 1; [7]): 4 ± 0.2%; PBP1 (% bound) (L. dispar PBP 1; [8]): 2 ± 0.1%
CCCCOc1ccc(OCCC)cc1 [3c{3,4}, 1-butoxy-4-propoxy benzene]		None	-11 ± 18	-90 ± 23	-180 ± 26	22 ± 12	PBP1 (% bound) (L. dispar PBP 1; [9]): 4 ± 0.3%
CCCOc1ccc(OCCC(C)C)cc1 [3c{3,5}, 1-(3-methyl-butyloxy)-4-propoxy benzene]		None	10 ± 11	-120 ± 20	-145 ± 35	4 ± 7	PBP2 (% bound) (L. dispar PBP 2; [8]): 2 ± 0.02%; PBP1 (% bound) (L. dispar PBP 1; member tested within library 3c{3, 1-5}): 1 ± 0.2%; PBP1 (% bound) (L. dispar PBP 1; [8]): 3 ± 0.1%
CCCCOc1ccc(OCCCC)cc1 [3c{4,4}, 1,4-Dibutoxy benzene]			-107 ± 41	-90 ± 57		7 ± 14	PBP2 (% bound) (L. dispar PBP 2; [10]): 8 ± 0.3%; PBP1 (% bound) (L. dispar PBP 1; [10]): 4 ± 0.1%
CCCCOc1ccc(OCCC(C)C)cc1 [3c{4,5}, 1-butoxy-4-(3-methyl-butyloxy) benzene]		None					PBP1 (% bound) (L. dispar PBP 1; [9]): 4 ± 0.4%
CCCCCCO [Compound 1-hexanol, 1-hexanol, reference compound]							EAG response to the pure odorant (in words) [3]: weak odorant; short-term effect with the plant synergist [4]: −19 ± 24 (10)
